Experimental data published in PubChem BioAssay (NCI).
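GI50 is the concentration that inhibits growth by half. The concentration for full growth arrest is given as TGI.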

Experiments:
Test in all cases: inhibition of tumour cell growth, NCI panel, 384-well format
SF-268 CNS = system: SF-268 CNS
UO-31 renal = system: UO-31 renal
SF-539 CNS = system: SF-539 CNS
PC-3 prostate = system: PC-3 prostate
IGROV1 ovarian = system: IGROV1 ovarian
UACC-62 melanoma = system: UACC-62 melanoma
LOX IMVI melanoma = system: LOX IMVI melanoma
HL-60(TB) leukemia = system: HL-60(TB) leukemia
SK-MEL-2 melanoma = system: SK-MEL-2 melanoma
RXF 393 renal = system: RXF 393 renal
SK-MEL-5 melanoma = system: SK-MEL-5 melanoma
MDA-MB-435 melanoma = system: MDA-MB-435 melanoma
HCT-15 colon = system: HCT-15 colon
NCI-H23 lung = system: NCI-H23 lung
SN12C renal = system: SN12C renal
UACC-257 melanoma = system: UACC-257 melanoma
MOLT-4 leukemia = system: MOLT-4 leukemia
NCI-H460 NSCLC = system: NCI-H460 NSCLC
U251 glioblastoma = system: U251 glioblastoma
RPMI-8226 leukemia = system: RPMI-8226 leukemia
MALME-3M melanoma = system: MALME-3M melanoma
M14 melanoma = system: M14 melanoma
COLO 205 colon = system: COLO 205 colon
HT29 colon = system: HT29 colon
T-47D breast = system: T-47D breast
SK-OV-3 ovarian = system: SK-OV-3 ovarian
SF-295 CNS = system: SF-295 CNS
OVCAR-3 ovarian = system: OVCAR-3 ovarian
HCT-116 colon = system: HCT-116 colon
NCI-H226 lung = system: NCI-H226 lung
SK-MEL-28 melanoma = system: SK-MEL-28 melanoma
A498 renal = system: A498 renal
ACHN renal = system: ACHN renal
TK-10 renal = system: TK-10 renal
NCI-H522 lung = system: NCI-H522 lung
SNB-19 CNS = system: SNB-19 CNS
NCI/ADR-RES ovarian = system: NCI/ADR-RES ovarian
MDA-MB-231 breast = system: MDA-MB-231 breast
SW-620 colon = system: SW-620 colon
A549 NSCLC = system: A549 NSCLC
SNB-75 CNS = system: SNB-75 CNS
786-0 renal = system: 786-0 renal
OVCAR-5 ovarian = system: OVCAR-5 ovarian
NCI-H322M lung = system: NCI-H322M lung
HCC-2998 colon = system: HCC-2998 colon
MCF7 breast = system: MCF7 breast
K-562 leukemia = system: K-562 leukemia
HS 578T breast = system: HS 578T breast
KM12 colon = system: KM12 colon
DU-145 prostate = system: DU-145 prostate
EKVX NSCLC = system: EKVX NSCLC
HOP-92 NSCLC = system: HOP-92 NSCLC
HOP-62 NSCLC = system: HOP-62 NSCLC
CAKI-1 renal = system: CAKI-1 renal
BT-549 breast = system: BT-549 breast
OVCAR-4 ovarian = system: OVCAR-4 ovarian
OVCAR-8 ovarian = system: OVCAR-8 ovarian
MDA-MB-468 breast = system: MDA-MB-468 breast
CCRF-CEM leukemia = system: CCRF-CEM leukemia

## CO[C@@H](C(=O)N1Cc2[nH]nc(NC(=O)c3ccc(N4CCN(C)CC4)cc3)c2C1)c1ccccc1
SF-268 CNS
  GI50: 1020 nM
  TGI: 2690 nM
UO-31 renal
  GI50: 11000 nM
  TGI: 25400 nM
SF-539 CNS
  GI50: 237 nM
  TGI: 1420 nM
PC-3 prostate
  GI50: 1630 nM
  TGI: 48600 nM
IGROV1 ovarian
  GI50: 547 nM
  TGI: 2790 nM
UACC-62 melanoma
  GI50: 561 nM
  TGI: 20100 nM
LOX IMVI melanoma
  GI50: 330 nM
  TGI: 1690 nM
HL-60(TB) leukemia
  GI50: 46.6 nM
  TGI: 1510 nM
SK-MEL-2 melanoma
  GI50: 15500 nM
  TGI: 29100 nM
RXF 393 renal
  GI50: 334 nM
  TGI: 2040 nM
SK-MEL-5 melanoma
  GI50: 11200 nM
  TGI: 24600 nM
MDA-MB-435 melanoma
  GI50: 16900 nM
  TGI: 32900 nM
HCT-15 colon
  GI50: 14700 nM
  TGI: > 100000 nM
NCI-H23 lung
  GI50: 822 nM
  TGI: 12900 nM
SN12C renal
  GI50: 737 nM
  TGI: 3530 nM
UACC-257 melanoma
  GI50: 13100 nM
  TGI: 26400 nM
MOLT-4 leukemia
  GI50: 18.9 nM
  TGI: 44.5 nM
NCI-H460 NSCLC
  GI50: 88.5 nM
  TGI: 1260 nM
U251 glioblastoma
  GI50: 1710 nM
  TGI: 16900 nM
RPMI-8226 leukemia
  GI50: 327 nM
  TGI: 1460 nM
MALME-3M melanoma
  GI50: 642 nM
  TGI: 15200 nM
M14 melanoma
  GI50: 9890 nM
  TGI: 26300 nM
COLO 205 colon
  GI50: 24.4 nM
  TGI: 63.9 nM
HT29 colon
  GI50: 4960 nM
  TGI: > 100000 nM
T-47D breast
  GI50: 9180 nM
  TGI: 28000 nM
SK-OV-3 ovarian
  GI50: 899 nM
  TGI: 12500 nM
SF-295 CNS
  GI50: 1700 nM
  TGI: 54400 nM
OVCAR-3 ovarian
  GI50: 113 nM
  TGI: 2640 nM
HCT-116 colon
  GI50: 120 nM
  TGI: 25200 nM
NCI-H226 lung
  GI50: 623 nM
  TGI: 4910 nM
SK-MEL-28 melanoma
  GI50: 2670 nM
  TGI: 18700 nM
A498 renal
  GI50: 1230 nM
  TGI: 25600 nM
ACHN renal
  GI50: 2410 nM
  TGI: 18600 nM
TK-10 renal
  GI50: 1590 nM
  TGI: 17800 nM
NCI-H522 lung
  GI50: 34.6 nM
  TGI: 561 nM
SNB-19 CNS
  GI50: 2290 nM
  TGI: > 100000 nM
NCI/ADR-RES ovarian
  GI50: > 100000 nM
  TGI: > 100000 nM
MDA-MB-231 breast
  GI50: 2360 nM
  TGI: > 100000 nM
SW-620 colon
  GI50: 848 nM
  TGI: 13000 nM
A549 NSCLC
  GI50: 442 nM
  TGI: 15500 nM
SNB-75 CNS
  GI50: 769 nM
  TGI: 2090 nM
786-0 renal
  GI50: 2530 nM
  TGI: 15100 nM
OVCAR-5 ovarian
  GI50: 1700 nM
  TGI: 9220 nM
NCI-H322M lung
  GI50: 3170 nM
  TGI: 16700 nM
HCC-2998 colon
  GI50: 12700 nM
  TGI: 30300 nM
MCF7 breast
  GI50: 37.1 nM
  TGI: 13700 nM
K-562 leukemia
  GI50: 32.6 nM
  TGI: 167 nM
HS 578T breast
  GI50: 1100 nM
  TGI: 2440 nM
KM12 colon
  GI50: 175 nM
  TGI: 10900 nM
DU-145 prostate
  GI50: 451 nM
  TGI: 24400 nM
EKVX NSCLC
  GI50: 1050 nM
  TGI: 15800 nM
HOP-92 NSCLC
  TGI: 2800 nM
HOP-62 NSCLC
  GI50: 676 nM
  TGI: 10500 nM
CAKI-1 renal
  GI50: 1210 nM
  TGI: 9850 nM
BT-549 breast
  GI50: 270 nM
  TGI: 1470 nM
OVCAR-4 ovarian
  GI50: 566 nM
  TGI: 23900 nM

## CN(CCO)C1CCN(c2ccc(Nc3ncc4c5ccnc(F)c5n(C5CCCC5)c4n3)nc2)CC1
SF-268 CNS
  GI50: 79.4 nM
  TGI: 941 nM
UO-31 renal
  GI50: 1200 nM
  TGI: 2450 nM
SF-539 CNS
  GI50: 1380 nM
  TGI: 2680 nM
PC-3 prostate
  GI50: 1430 nM
  TGI: 2790 nM
IGROV1 ovarian
  GI50: 1050 nM
  TGI: 2260 nM
UACC-62 melanoma
  GI50: 1350 nM
  TGI: 2640 nM
LOX IMVI melanoma
  GI50: 977 nM
  TGI: 2180 nM
HL-60(TB) leukemia
  GI50: 52.1 nM
  TGI: 1760 nM
RXF 393 renal
  GI50: 1280 nM
  TGI: 2550 nM
SK-MEL-5 melanoma
  GI50: 480 nM
  TGI: 2030 nM
MDA-MB-435 melanoma
  GI50: 2260 nM
  TGI: 9490 nM
HCT-15 colon
  GI50: 1080 nM
  TGI: 2320 nM
NCI-H23 lung
  GI50: 1200 nM
  TGI: 2460 nM
SN12C renal
  GI50: 3020 nM
  TGI: 14900 nM
UACC-257 melanoma
  GI50: 1550 nM
  TGI: 2900 nM
MOLT-4 leukemia
  GI50: 62.4 nM
  TGI: 812 nM
NCI-H460 NSCLC
  GI50: 188 nM
  TGI: 1810 nM
U251 glioblastoma
  GI50: 1120 nM
  TGI: 2350 nM
RPMI-8226 leukemia
  GI50: 47.7 nM
  TGI: 1120 nM
MALME-3M melanoma
  GI50: 1340 nM
  TGI: 2640 nM
M14 melanoma
  GI50: 1190 nM
  TGI: 2440 nM
COLO 205 colon
  GI50: 373 nM
  TGI: 1950 nM
HT29 colon
  GI50: 1020 nM
  TGI: 2230 nM
T-47D breast
  GI50: 1880 nM
  TGI: 67500 nM
SK-OV-3 ovarian
  GI50: 1450 nM
  TGI: 2780 nM
SF-295 CNS
  GI50: 881 nM
  TGI: 2150 nM
OVCAR-3 ovarian
  GI50: 1870 nM
  TGI: 3290 nM
HCT-116 colon
  GI50: 684 nM
  TGI: 2050 nM
NCI-H226 lung
  GI50: 5220 nM
  TGI: > 100000 nM
SK-MEL-28 melanoma
  GI50: 4060 nM
  TGI: 16200 nM
A498 renal
  GI50: 853 nM
  TGI: 2120 nM
OVCAR-8 ovarian
  GI50: 1620 nM
  TGI: 3010 nM
ACHN renal
  GI50: 1000 nM
  TGI: 2190 nM
TK-10 renal
  GI50: 1370 nM
  TGI: 2700 nM
NCI-H522 lung
  GI50: 1770 nM
  TGI: 3170 nM
SNB-19 CNS
  GI50: 1370 nM
  TGI: 2760 nM
NCI/ADR-RES ovarian
  GI50: 1740 nM
  TGI: 3170 nM
MDA-MB-231 breast
  GI50: 1260 nM
  TGI: 2710 nM
SW-620 colon
  GI50: 574 nM
  TGI: 2010 nM
A549 NSCLC
  GI50: 619 nM
  TGI: 1990 nM
SNB-75 CNS
  GI50: 1480 nM
  TGI: 2810 nM
786-0 renal
  GI50: 1150 nM
  TGI: 2370 nM
OVCAR-5 ovarian
  GI50: 885 nM
  TGI: > 100000 nM
MDA-MB-468 breast
  GI50: 1630 nM
  TGI: 2990 nM
NCI-H322M lung
  GI50: 1340 nM
  TGI: 2640 nM
HCC-2998 colon
  GI50: 655 nM
  TGI: 2010 nM
MCF7 breast
  GI50: 353 nM
  TGI: 1760 nM
K-562 leukemia
  GI50: 664 nM
  TGI: 2090 nM
HS 578T breast
  GI50: 1420 nM
  TGI: 3200 nM
KM12 colon
  GI50: 56.8 nM
  TGI: 1280 nM
DU-145 prostate
  GI50: 1720 nM
  TGI: 3130 nM
EKVX NSCLC
  GI50: 1270 nM
  TGI: 2560 nM
CCRF-CEM leukemia
  GI50: 89.3 nM
  TGI: 1250 nM
HOP-92 NSCLC
  GI50: 3020 nM
  TGI: 15400 nM
HOP-62 NSCLC
  GI50: 1170 nM
  TGI: 2420 nM
CAKI-1 renal
  GI50: 868 nM
  TGI: 2150 nM
BT-549 breast
  GI50: 1490 nM
  TGI: 2830 nM
OVCAR-4 ovarian
  GI50: 1730 nM
  TGI: 3130 nM
